Test system: human keratinocyte cell line HaCaT
Assay: Neutral Red Uptake (NRU) cytotoxicity test with HaCaT cells
Format: cell-based
Text: NRU50 values are the NRU values used in the present invention. They characterize the concentration of a substance or composition, at which the up-take of the dye neutral red is reduced to about 50% in human keratinocyte cells. Neutral red (3-amino-7-dimethylamino-2-methyl phenazine hydrochloride) is a weak cationic dye, which easily diffuses from an outer medium through a cell membrane separating individual cells into the cell interior. Changes in the cell surface or the cell membrane by potentially harmful substances reduce the dye uptake and the retention of the dye in the cell. A high NRU50 value means a slight cell-damaging action and low cytotoxicity and is a hint of an improved eye compatibility of the tested substance or composition.
The neutral red (3-amino-7-dimethylamino-2-methyl phenazine hydrochloride) taken up by the cells exposed to the test substance is extracted and measured spectrophotometrically at 540 nm. Toxicological effects cause a reduction in the amount of taken-up neutral red in comparison to separate untreated control cells. The concentration of the test substance, which leads to a reduction of the up-taken and bound neutral red amount of about 50% in comparison to the control cells, is the NRU50-value.
The HaCaT cells are grown in Dulbecco's modified Eagle's medium with 2 mM L-glutamin, 10% (v/v) foetal calf serum (FCS), 100 IU penicillin and 100 μg/ml streptomycin added in an atmosphere having 95% humidity and 5% CO2.
In pretests an approximate NRU50 value is determined with 8 different concentrations of the test substance. On this basis eight suitable concentrations around these approximate values are selected for the final measurements. The measurement is repeated with an independent batch with equal concentrations. Sodium lauryl sulfate with concentrations of 50, 25, 10 and 1 μg/ml is used as reference substance.
Approximately 2*10^4 HaCaT cells in 250 μl growth medium per receptacle are placed in 60 central receptacles of microtiter plates each with 96 receptacles. The corner receptacles act as controls and contain only the growth medium. The plates are incubated for 24 hours at 37° C. in a moist atmosphere with 5% CO2 and 95% air. The culture medium is removed and either replaced by pure treatment medium or by treatment medium containing the various concentration of the test substance to be tested or the reference substance.
After an acting time of 24 hours the treatment medium is replaced by storage medium, which contains 50 μg/ml of neutral red. The plates are placed again in the incubator for three hours. After that the medium is removed, the cells washed with a fixative (1% formaldehyde, 1% calcium chloride) and 100 μl of an extraction solution (1% acetic acid in 50% ethanol) is added to each receptacle for dye extraction. After 20 minutes the absorption is measured at 540 nm with a microplate reader. Concentration/effectiveness diagrams are drawn or plotted, expressed as percent viability of the negative control cells (CC) relative to the respective test concentrations from the average values and after correction with the null value from the BC receptacles.

Substance	NRU [µg/mL]	NRU50 [µg/mL]
Ceteareth-20 [EUMULGIN® B2]	5.8	
Oleth-5 [EUMULGIN® 05]	7.8	
PEG-40 Hydrogenated Castor Oil [CREMOPHOR® RH 410]		188
Oleth-20 [VOLPO® N20]	6.2	
PEG-60 Hydrogenated Castor Oil [CREMOPHOR® CO60]		203
